In one test the test system is Mcl-1. The test is described as follows: Western blot of Mcl-1 in U937 cells. The format is cell-based. The conditions noted are these: agent alone. As for the experimental part:
After 24 hours treatment with Compound 7A, U937 cells were collected by centrifugation and whole cell lysates were prepared. These lysates were analyzed by Western blot to determine the level of Mcl-1. Western blot analysis was carried out as previously described (Wang et al., 2014 Journal of the American Society of Nephrology DOI: 10.1681/asn.2013060665). The band intensity for Mcl-1 in these samples were normalized to that of tubulin to correct for any inconsistencies in total protein in loading and processing the whole cell lysates.
To investigate the mechanism of action, Western blot analysis was carried out to test the induced degradation of USP9X substrate Mcl-1 by the compounds under the effects of protein synthesis inhibitor cycloheximide and/or proteasome inhibitor MG132. U937 cells were treated with 10 μM cycloheximide for one hour, with 10 μM MG132 for one hour, with the combination of 10 μM cycloheximide and 10 μM MG132 for one hour, and with vehicle (DMSO) for one hour, respectively, prior to the treatment with Compound 5A for 24 hrs. The U937 cells were harvested after treatment and whole cell lysates were prepared. These lysates were analyzed by Western blot to determine the abundance of Mcl-1 as well as that of tubulin as a normalization control. […] The band intensity of the Mcl-1 in cells treated with cycloheximide alone (Lane 2) was reduced relative to that for tubulin. […] Global blockade of protein synthesis by cycloheximide led to a significant decrease in the expression levels, especially for short lived Mcl-1. The retention of a reduced portion of Mcl-1 indicated the immunity of this portion to proteasomal degradation. […] In contrast, the band intensity of Mcl-1 relative to that of tubulin increased upon treatment of U937 cells with the proteasome inhibitor MG132 (Lane 4). […] Together, the results of this Example are consistent with the compounds acting on the proposed mechanism that intracellular inhibition of the deubiquitylase activity of USP9X blocks its ability to rescue USP9X substrates such as Mcl-1 from proteasomal degradation. In other aspects, by varying the concentration ratios of the compound and proteasome inhibitor for treating cells, it was possible to achieve controlled degradation of a USP9X substrate so the substrate could decline to a desirable level rather than degrade entirely.
For orientation: Immunoblotting shows a protein as a band on a membrane.

The subject of the next test is MDA-MB-231 cells. Put plainly: WST-1 cell viability assay. The format is cell-based. Conditions: Homo sapiens. As for the experimental part:
(§1) Compound Compound 9A was tested for the ability to inhibit the proliferation of Mia-Paca-2 pancreatic cancer cells. Mia-Paca-2 and MDA-MB-231 cells were seeded into the wells of a 96 well tissue culture plate in complete medium (10% fetal calf serum) and incubated overnight at 37° C./5% CO2). The medium was exchanged for fresh medium containing varying concentrations of Compound 9A and the plate was incubated for 72 hours at 37° C./5% CO2. The viability of cells at the end of this incubation was assessed with the WST-1 reagent. To 10 ml of warm (37° C.) complete medium, 1 ml WST-1 reagent was added. The medium from the wells of the plate with the Mia-Paca-2 cells was removed and replaced with 100 μL of the WST-1 reagent in complete medium. The plate was incubated at 37 37° C./5% CO2. At timed intervals the absorbance at 450 nm was determined for each well in a UVNis plate reader. For each well the slope of the plot of the absorbance 450 nm vs time was determined. The readings were normalized to that of the wells for the untreated control and a dose-response curve was plotted. A fit to the data was made from a four parameter, variable slope program (GraphPad Prism) and the IC50 was determined.
The TNBC cell line MDA-MB-231 express high levels of Mcl-1 and USP9X in addition to Bcl-2 and Bcl-xL. MDA-MB-231 cells were treated with ABT737 for 72 hours at varying concentrations and underwent western blot analysis.
In general terms: Tetrazolium dyes change colour on reduction, which living cells bring about.

The next test deals with U937 cells. The test is described as follows: WST-1 cell viability assay. The conditions noted are these: Homo sapiens, U-937, U937 cells. The format is cell-based. As for the experimental part:
as §1
The effect of Compound 7A on U937 cells was assessed using the same experiment described in the Inhibitory Activities against the Proliferation of Mia-Paca-2 and Other Cancer Cells section above. In response to treatment with Compound 7A, proliferation of U937 leukemia cells was inhibited and induced apoptosis was obsessed by trypan blue staining.
U937 cells were treated with the Bcl-2/Bcl-xL inhibitor ABT737 72 hours at varying concentrations and underwent western blot analysis.

Test [1] has as its system Mia-Paca-2 pancreatic cancer cells. The test is described as follows: WST-1 cell viability assay. The format is cell-based. Conditions: for cell viability: Mia-Paca-2 pancreatic cells. The procedure: as §1
(§2) The same procedures were also applied to the compounds Compound 7A, Compound 6A, and Compound 8A to test their inhibitory activities against RKO colon, Mia-Paca-2 pancreatic and BT-549 cancer cells.

Test [2] has as its target T1, USP9X (Homo sapiens (Human), UniProt Q93008). Put plainly: Steady-state enzyme inhibition kinetics of USP9X. The format is biochemical. From the text: The data were fit to a general model for enzyme inhibition (FIG. 1E) so the values of the parameters determined from the assays specified the mode of inhibition. For example, in the case of α=1 and β=0, it corresponded to purely non-competitive inhibition. For α=infinity and p=1, it corresponded to purely competitive inhibition. The values of all the parameters, KS, KI, kcat, α, and β could be determined from the steady state measurements. The enzyme reactions were set up as described in the Inhibiting the catalytic activity of USP9X section. The concentration of the substrate ubqiutin-rhodamine110 was varied. The initial rates of the reactions were determined at several concentrations of the inhibitor Compound 2A. In order to determine the values of the parameters KS and kcat, the reaction rates in the absence of the inhibitor Compound 2A, the initial reaction rate data were fit to the standard Michaelis-Menten equation v=Vmax [S]/(Km+[S]). The values of α and β could then be determined by fitting the initial rate data of the enzyme reaction at various concentrations of Compound 2A to a modified version of the Michaelis-Menten equation, designating both Vmax and KS apparent to distinguish the apparent values of the parameters determined from these plots to the true values for these parameters determined from the steady state kinetics in the absence of Compound 2A. The values of α and β could be determined from the variation of the slopes and intercepts of the series of double reciprocal plots of 1/v versus 1/[S] for each concentration of Compound 2A. […] The two values determined for KI were from the two different plots.
The two values for KI were determined by two different methods for determining this parameter from the kinetic data: 1 represented a value determined from the slope of the 1/A intercept vs 1/[I] plot; 2 represented a value determined from the y intercept of the 1/A slope vs 1/[I] plot. […] Only the values of the parameters varied for the compounds.
Target sequence in this assay (Q93008 whole entry): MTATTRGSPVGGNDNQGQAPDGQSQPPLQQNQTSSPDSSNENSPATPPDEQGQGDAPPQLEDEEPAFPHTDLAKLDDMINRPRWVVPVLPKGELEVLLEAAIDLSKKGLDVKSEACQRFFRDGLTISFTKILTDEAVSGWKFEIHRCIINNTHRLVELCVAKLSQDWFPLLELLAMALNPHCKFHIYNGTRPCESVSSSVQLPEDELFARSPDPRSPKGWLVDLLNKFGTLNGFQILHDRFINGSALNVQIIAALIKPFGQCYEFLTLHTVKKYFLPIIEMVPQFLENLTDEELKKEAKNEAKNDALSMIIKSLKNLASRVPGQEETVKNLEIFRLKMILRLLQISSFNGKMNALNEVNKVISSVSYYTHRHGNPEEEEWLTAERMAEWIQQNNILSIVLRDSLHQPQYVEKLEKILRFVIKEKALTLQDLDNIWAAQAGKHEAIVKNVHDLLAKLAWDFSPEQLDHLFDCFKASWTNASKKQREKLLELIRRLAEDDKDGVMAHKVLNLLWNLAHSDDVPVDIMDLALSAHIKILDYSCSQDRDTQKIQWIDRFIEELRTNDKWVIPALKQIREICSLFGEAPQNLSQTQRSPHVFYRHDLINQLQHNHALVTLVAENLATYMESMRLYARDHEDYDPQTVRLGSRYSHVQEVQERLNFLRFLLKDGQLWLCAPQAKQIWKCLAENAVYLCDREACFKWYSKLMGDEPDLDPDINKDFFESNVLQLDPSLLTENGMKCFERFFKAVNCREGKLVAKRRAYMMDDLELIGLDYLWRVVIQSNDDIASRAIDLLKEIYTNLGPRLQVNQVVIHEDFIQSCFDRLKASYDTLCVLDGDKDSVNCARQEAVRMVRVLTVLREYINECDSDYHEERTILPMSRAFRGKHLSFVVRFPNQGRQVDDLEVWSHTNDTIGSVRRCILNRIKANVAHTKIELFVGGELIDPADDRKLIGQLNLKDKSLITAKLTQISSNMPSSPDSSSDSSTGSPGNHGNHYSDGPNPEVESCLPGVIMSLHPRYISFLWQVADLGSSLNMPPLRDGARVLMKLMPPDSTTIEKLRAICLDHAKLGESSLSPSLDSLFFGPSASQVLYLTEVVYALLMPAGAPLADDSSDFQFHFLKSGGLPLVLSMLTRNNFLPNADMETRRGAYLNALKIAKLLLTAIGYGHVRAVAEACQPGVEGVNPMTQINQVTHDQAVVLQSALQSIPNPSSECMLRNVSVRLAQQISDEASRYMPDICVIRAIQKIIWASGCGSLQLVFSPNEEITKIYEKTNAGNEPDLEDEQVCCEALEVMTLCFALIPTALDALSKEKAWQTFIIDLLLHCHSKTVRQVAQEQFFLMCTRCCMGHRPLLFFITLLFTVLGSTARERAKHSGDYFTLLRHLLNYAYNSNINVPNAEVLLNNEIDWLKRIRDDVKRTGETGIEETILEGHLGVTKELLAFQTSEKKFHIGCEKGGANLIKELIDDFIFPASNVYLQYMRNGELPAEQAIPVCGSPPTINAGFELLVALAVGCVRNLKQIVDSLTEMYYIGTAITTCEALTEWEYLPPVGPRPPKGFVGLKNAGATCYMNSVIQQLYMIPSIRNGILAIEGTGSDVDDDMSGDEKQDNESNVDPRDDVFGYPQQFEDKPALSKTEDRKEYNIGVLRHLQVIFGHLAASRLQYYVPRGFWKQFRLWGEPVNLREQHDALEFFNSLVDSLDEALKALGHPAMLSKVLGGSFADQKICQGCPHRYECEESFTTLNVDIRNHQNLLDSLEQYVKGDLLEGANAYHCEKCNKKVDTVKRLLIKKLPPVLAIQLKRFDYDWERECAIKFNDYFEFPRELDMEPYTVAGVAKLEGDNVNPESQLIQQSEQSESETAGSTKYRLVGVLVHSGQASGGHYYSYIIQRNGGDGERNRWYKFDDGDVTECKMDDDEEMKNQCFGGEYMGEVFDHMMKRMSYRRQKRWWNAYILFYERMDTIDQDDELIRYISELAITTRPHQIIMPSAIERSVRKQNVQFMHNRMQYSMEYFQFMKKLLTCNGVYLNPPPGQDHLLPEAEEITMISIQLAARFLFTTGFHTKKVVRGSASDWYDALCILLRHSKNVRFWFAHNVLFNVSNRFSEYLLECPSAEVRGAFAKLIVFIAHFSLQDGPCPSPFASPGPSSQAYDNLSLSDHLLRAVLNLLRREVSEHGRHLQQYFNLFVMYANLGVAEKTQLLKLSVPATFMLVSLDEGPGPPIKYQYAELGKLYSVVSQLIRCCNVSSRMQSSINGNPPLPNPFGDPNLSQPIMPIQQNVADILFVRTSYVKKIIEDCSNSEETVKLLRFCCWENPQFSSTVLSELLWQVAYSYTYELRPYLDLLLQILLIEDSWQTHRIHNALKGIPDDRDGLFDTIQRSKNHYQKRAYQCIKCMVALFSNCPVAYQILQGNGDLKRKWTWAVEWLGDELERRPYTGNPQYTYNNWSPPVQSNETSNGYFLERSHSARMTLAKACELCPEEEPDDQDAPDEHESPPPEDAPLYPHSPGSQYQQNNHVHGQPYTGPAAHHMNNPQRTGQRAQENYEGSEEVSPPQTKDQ

For test [3], the target named is T1, USP9X. Put plainly: USP9X enzyme activity assay, ubiquitin-rhodamine110 substrate.
Target sequence in this assay (Q93008 whole entry): as above
Method: The inhibition property of compound Compound 1A was evaluated in assays measuring the ability of USP9X to catalyze the hydrolysis of the amide bond between the C terminal carboxylate of ubiquitin and rhodamine110 of the fluorogenic substrate ubiquitin-rhodamine 110. To the wells of a 96 well reaction plate was added 12.5 μL USP9X solution (1.3 nM) in assay buffer (100 mM NaCl, 1 mM DTT, 0.1% bovine serum albumin, 0.05% Tween 20, 50 mM Tris, pH 7.5). 12.5 μL of Compound 1A in assay buffer (4×final concentration) was added to the wells containing the USP9X solution, and the solution was gently mixed by pipetting up and down several times. The plate was sealed and incubated at room temperature for 20 minutes.
Then 25 μL of the 1 μM substrate (ubiquitin-rhodaminel10) solution was added in assay buffer. The final substrate concentration was 0.5 μM. […] The slope for the rate of change of the fluorescence was determined and plotted vs the concentration of Compound 1A.
USP9X enzyme assays were set up in a 96 well plate to assess the abilities of Compound 3A and Compound 4A to inhibit the activity of USP9X, respectively. Ubiquitin-rhodamine110 was used as the substrate and ubiquitin aldehyde was included in the assay as a positive control.
Purified recombinant USPx9 (R&D Systems) in 50 mM Tris buffer pH 7.5, 1 mM DTT, 100 mM NaCl, 0.05% Tween 20 and 0/1% BSA is used at a concentration of 0.325 nM with 0.5 μM ubiquitin-rhodamine (R&D Systems).
The next test concerns RKO colon cells. The test is described as follows: WST-1 cell viability assay. The format is cell-based. The procedure: as §1, §2
The subject of another test is BT-549 cancer cells. The test is described as follows: WST-1 cell viability assay. The format is cell-based, human. The conditions noted are these: BT-549 cells. As for the experimental part:
as §1, §2

For test [4], the target named is T1, USP9X. The conditions noted are these: cited from earlier work.
Target sequence in this assay (Q93008 whole entry, species assumed): as the sequence (Q93008 whole entry) above
For the next test, the target named is USP5 (Homo sapiens (Human), UniProt P45974). Conditions: cited from earlier work.
Sequence of USP5 (P45974 whole entry, species assumed): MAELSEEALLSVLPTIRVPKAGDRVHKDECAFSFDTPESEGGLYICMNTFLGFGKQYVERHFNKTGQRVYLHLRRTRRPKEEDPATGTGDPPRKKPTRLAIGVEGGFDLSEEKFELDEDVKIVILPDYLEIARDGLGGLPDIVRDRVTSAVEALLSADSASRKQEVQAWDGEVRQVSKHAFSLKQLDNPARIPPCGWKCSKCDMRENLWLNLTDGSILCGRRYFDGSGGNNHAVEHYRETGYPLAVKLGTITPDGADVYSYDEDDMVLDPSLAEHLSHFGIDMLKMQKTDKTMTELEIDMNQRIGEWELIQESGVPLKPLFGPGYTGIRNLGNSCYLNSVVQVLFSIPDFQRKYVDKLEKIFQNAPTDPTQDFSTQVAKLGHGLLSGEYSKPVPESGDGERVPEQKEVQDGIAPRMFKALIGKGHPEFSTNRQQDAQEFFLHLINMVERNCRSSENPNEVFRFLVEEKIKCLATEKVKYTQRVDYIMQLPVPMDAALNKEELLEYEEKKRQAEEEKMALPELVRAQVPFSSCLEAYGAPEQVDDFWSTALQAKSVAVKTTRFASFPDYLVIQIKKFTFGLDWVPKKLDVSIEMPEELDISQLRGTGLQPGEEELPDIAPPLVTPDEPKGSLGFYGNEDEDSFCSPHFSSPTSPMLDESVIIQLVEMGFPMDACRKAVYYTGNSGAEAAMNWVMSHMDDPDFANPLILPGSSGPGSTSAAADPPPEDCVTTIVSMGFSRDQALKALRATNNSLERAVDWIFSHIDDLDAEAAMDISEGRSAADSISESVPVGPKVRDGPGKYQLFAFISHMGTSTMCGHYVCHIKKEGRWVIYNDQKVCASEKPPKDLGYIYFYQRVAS
A further test concerns the target USP24 (Homo sapiens (Human), UniProt Q9UPU5). Conditions: cited from earlier work.
[5] abbreviates: 72 hours, single agent, read-out: IC50, cell viability.
Where [6] appears, read: read-out: USP9X IC50/UM, Table 8.

SMILES strings stand for the structures. pIC50: −log10 of the molar value. Where two headings read alike, the source gives them in different places. Residues, ends and D or L forms follow the SMILES beside them. *: point of attachment. Cbz = O=C(OCc1ccccc1)* Some results are limits rather than exact numbers.

A word on the Ki: it is a dissociation constant, usually derived from enzyme kinetics or from competition with a known ligand. The term IC50 denotes the concentration needed to halve the response being measured.

In the case of `CC(C)C[C@@H](C=O)NC(=O)[C@H](CC(C)C)NC(=O)[C@H](CC(C)C)NC(=O)OCc1ccccc1` [MG132, reference compound] (Cbz-Leu-Leu-Leu-aldehyde), in the test with Mcl-1, the “band intensity of Mcl-1 relative to tubulin” value is listed as “increased”.
As for `CN(C)CC[C@H](CSc1ccccc1)Nc1ccc(S(=O)(=O)NC(=O)c2ccc(N3CCN(Cc4ccccc4-c4ccc(Cl)cc4)CC3)cc2)cc1[N+](=O)[O-]` [ABT737, reference compound], the pIC50 in the test with MDA-MB-231 cells (setting [5]) was 5.06; in the test with MDA-MB-231 cells (co-treated with 10 μM Compound 5A, read-out: IC50 of ABT737 with co-treatment) it was 5.74; in the test on U937 cells (72-hour treatment, single agent, read-out: IC50, cell viability), 5.47; with U937 cells (with 0.5 μM Compound 7A, read-out: IC50 of ABT737 with co-treatment) it was 7.22.
As for `CN1CCOc2ccc(c(F)c2)C(=O)NCc2cccc(c2)C(=O)N[C@@H](CC(C)(C)C)C(=O)Nc2ccc(cc2)CCN(C)C(=O)CC(C)(C)CC1=O` [Compound 9A], the pIC50 in [1] (Homo sapiens, Mia-Paca-2 cells, 72 hours, read-out: IC50, inhibition of proliferation) is 8.00; in the test on MDA-MB-231 cells (setting [5]), 5.70.
Consider `CN1CCOc2ccc(c(F)c2)C(=O)NCc2ccc(F)c(c2)C(=O)N[C@@H](CC(C)(C)C)C(=O)Nc2ccc(cc2)CCN(C)C(=O)CC(C)(C)CC1=O` [Compound 11A], for which, at USP9X [2], the “KS” value was found to be 0.91 µM, the “VMAX RFU/min” value came to 408 RFU/min, the α was found to be 2 and the β was found to be 0.88. For the same compound, on USP9X [2] (from the slope of the 1/Δ intercept vs 1/[I] plot, read-out: KI, nM (1)), the Ki is 7 nM. In addition, the Ki at USP9X [2] (from the y intercept of the 1/Δ slope vs 1/[I] plot, read-out: KI, nM (2)) turned out to be 69 nM. Besides, at USP9X [3] (read-out: IC50 for the inhibition of USP9X activity, ubiquitin-rhodamine110 substrate), the pIC50 is 7.32. Further, the IC50 at USP9X [3] (read-out: USP9X IC50 nM, Table 2) was determined as 48 nM.
For `CN1CCCCOc2ccc(cc2)C(=O)NCc2ccc(F)c(c2)C(=O)N[C@@H](CC(C)(C)C)C(=O)Nc2ccc(cc2)CCC1=O` [Compound 8A], the “cell viability” value (in [1]; in the test on RKO colon cells; with BT-549 cancer cells) was “significant decreases” in each case.
On to `C[C@@H]1C[C@@H]([C@H](O)CC2CC(=O)NC(=O)C2)C(=O)[C@@H](C)C1` [cycloheximide, reference compound], for which the “band intensity of Mcl-1 relative to tubulin” value with Mcl-1 was “reduced”.
On to `CNCCOc1ccc(C(=O)NCc2cccc(C(=O)N[C@@H](CC(C)(C)C)C(=O)Nc3ccc(CCC(=O)O)cc3)c2)cc1` [Compound 3], for which the pIC50 at USP9X [3] (setting [6]) was 6.55.
`CC(=O)NCc1ccc(F)c(C(=O)N[C@@H](CC(C)(C)C)C(=O)Nc2ccc(CCC(=O)O)cc2)c1` [Compound 60]: the pIC50 on USP9X [3] (setting [6]) was 4.89.
For the compound `CC(C)(C)C[C@H](NC(=O)c1cccc(CNC(=O)c2ccc(OCCNC(=O)CC(C)(C)CC(=O)NCCc3ccc(N)cc3)cc2)c1)C(=O)O` [Compound 66], on USP9X [3] (Table 8), the “USP9X IC50/UM” value was more than 50 UM.
As to `Cc1ccc(NC(=O)[C@H](CC(C)(C)C)NC(=O)c2cccc(CNC(=O)c3ccc(OCCO)cc3)c2)cc1` [Compound 62], the pIC50 at USP9X [3] (setting [6]) was 5.16.
Still for that read-out and setting: the figure for `CC(C)(C)C[C@H](NC(=O)c1cccc(CNC(=O)c2ccc(OCCO)cc2)c1)C(=O)Nc1ccccc1` [Compound 61] is 5.24.
Turning to `CN(C)CCOc1ccc(C(=O)NCc2cccc(C(=O)N[C@@H](CC(C)(C)C)C(=O)N(C)Cc3ccccc3)c2)cc1` [Compound 26], at USP9X [3] (Table 8), the “USP9X IC50/UM” value was more than 50 UM.
With `CN1CCCCOc2ccc(cc2)C(=O)NCc2cccc(c2)C(=O)N[C@@H](CC(C)(C)C)C(=O)Nc2ccc(cc2)CCC1=O` [Compound 6A], the “cell viability” value (in [1]; in the test with RKO colon cells; with BT-549 cancer cells) was “significant decreases” in each case.
On to `CCCC(NC(=O)/C(C#N)=C/c1nc(Cl)ccc1Cl)c1ccc(OCCN2CCOCC2)cc1` (centres unmarked) [EOAI3402143], for which, at USP9X [4], the “inhibits USP9X” value was “inhibits”. In addition, the “inhibits USP5” value at USP5 is on record as “inhibits”. Moreover, the “inhibits USP24” value at USP24 is “inhibits”.
Take `CN(C)CCOc1ccc(C(=O)NCc2cccc(C(=O)N[C@@H](CC(C)(C)C)C(=O)Nc3ccc(CCN4CCOCC4)cc3)c2)cc1` [Compound 14]: the pIC50 at USP9X [3] (setting [6]) was 6.92.
In the case of `CNCCOc1ccc(C(=O)NCc2cccc(C(=O)N[C@@H](C)C(=O)Nc3ccc(CCC(=O)O)cc3)c2)cc1` [Compound 33], the “USP9X IC50/UM” value at USP9X [3] (Table 8) is given as more than 50 UM.
Still for that read-out and setting: the same measure for `CN(C)CCOc1ccc(C(=O)NCc2cccc(C(=O)N[C@@H](CC(C)(C)C)C(=O)NCc3ccccc3F)c2)cc1` [Compound 27]: more than 50 UM.
Turning to `CNC(=O)CCc1ccc(NC(=O)[C@H](CC(C)(C)C)NC(=O)c2cccc(CNC(=O)c3ccccc3)c2)cc1` [Compound 45], the pIC50 on USP9X [3] (setting [6]) was 5.68.

The values are drawn from patent US20240294467A1, “USP9X Inhibitors” (ProDeg, LLC, priority 2021, published 2024).
